Data set [1] concerns Escherichia coli. As to the kind of experiment: Antimicrobial activity against ciprofloxacin-, SXT-sensitive Escherichia coli ATCC 25922. In kind it is functional.
The next data set has as its system Klebsiella pneumoniae. The experiment in a line: Antimicrobial activity against ciprofloxacin-sensitive, SXT-resistant Klebsiella pneumoniae ATCC 700603. The format is functional.
The next data set deals with Pseudomonas aeruginosa. The experiment in a line: Antimicrobial activity against ciprofloxacin-sensitive, SXT-resistant Pseudomonas aeruginosa ATCC 10145. In kind it is functional.
Data set [2] has as its system Escherichia coli. As to the kind of experiment: Antimicrobial activity against ciprofloxacin-, SXT-resistant Escherichia coli. The format is functional.
A further data set has as its system Staphylococcus aureus. The experiment in a line: Antimicrobial activity against ciprofloxacin-, SXT-sensitive Staphylococcus aureus ATCC 25923. The format is functional.
Data set [3] concerns Staphylococcus epidermidis. As to the kind of experiment: Antimicrobial activity against ciprofloxacin-sensitive, SXT-resistant Staphylococcus epidermidis NRS60. The format is functional.
A short description of data set [4]: Inhibition of DNA supercoiling activity of Escherichia coli DNA gyrase after 1 hr by agarose gel electrophoresis.
A short description of data set [5]: Inhibition of DNA decatenation activity of Escherichia coli DNA topoisomerase 4 after 1 hr by agarose gel electrophoresis.
The test system of the next data set is HepG2. The experiment in a line: Cytotoxicity against human HepG2 cells at 100 uM after 48 hrs by MTT assay. The format is cell-based. Conditions: hepg2, 48 h; call rule not given here.
The next data set has as its system HEK293. As to the kind of experiment: Cytotoxicity against human HEK293 cells at 100 uM after 48 hrs by MTT assay. The format is cell-based. Conditions: hek293, 48 h.
A short description of data set [6]: Cytotoxicity against human HepG2 cells after 48 hrs by MTT assay. The format is cell-based.
A short description of data set [7]: Cytotoxicity against human HEK293 cells after 48 hrs by MTT assay. In kind it is cell-based.
In a further data set the target is T1, Dihydrofolate reductase (Homo sapiens, UniProt P00374).
T1 sequence (P00374 whole entry): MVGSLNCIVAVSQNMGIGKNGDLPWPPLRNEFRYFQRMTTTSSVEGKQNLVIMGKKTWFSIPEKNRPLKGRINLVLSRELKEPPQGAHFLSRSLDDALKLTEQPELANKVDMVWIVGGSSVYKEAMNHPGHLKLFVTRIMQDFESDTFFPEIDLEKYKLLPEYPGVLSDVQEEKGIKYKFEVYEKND
The experiment in a line: Inhibition of DHFR using dihydrofolate as substrate following 3 mins substrate preincubation measured after 3 mins by spectrophotometric analysis.

Values after ≈ are worked out from the molar mass of the structure shown. Bounds are passed on as bounds.

With `COc1cc(Cc2cnc(N)nc2N)cc(OC)c1OC` [TRIMETHOPRIM], the MIC in the data set with Escherichia coli [1] is 0.125 µg/mL (≈ 0.431 µM); in the data set on Klebsiella pneumoniae, 2 µg/mL (≈ 6.89 µM); against Pseudomonas aeruginosa it was over 64 µg/mL; in the data set with Escherichia coli [2], over 64 µg/mL; against Staphylococcus aureus, 1 µg/mL (≈ 3.44 µM); in data set [3], over 64 µg/mL.
Regarding `COc1cc(Cc2cnc(Nc3nc4c(cc3F)c(=O)c(C(=O)O)cn4C3CC3)nc2N)cc2c1OCCN2`, the MIC (in the data set with Escherichia coli [1]; in the data set with Klebsiella pneumoniae; against Pseudomonas aeruginosa; in the data set with Escherichia coli [2]; against Staphylococcus aureus; in data set [3]) was over 64 µg/mL each time.
Regarding `C#CCNc1nc2c(cc1F)c(=O)c(C(=O)O)cn2C1CC1`, the MIC against Escherichia coli [1] is 16 µg/mL (≈ 53.1 µM); against Klebsiella pneumoniae, over 64 µg/mL; against Pseudomonas aeruginosa, over 64 µg/mL; in the data set on Escherichia coli [2], over 64 µg/mL; with Staphylococcus aureus it was 32 µg/mL (≈ 106 µM); in [3], 16 µg/mL (≈ 53.1 µM). Moreover, the IC50 in [4] (read-out: IC50) was 166 µM; in data set [5] (read-out: IC50), over 250 µM.
On to `COc1cc(Cc2cnc(N)nc2Nc2nc3c(cc2F)c(=O)c(C(=O)O)cn3C2CC2)cc2c1OCCN2`, for which the MIC (against Escherichia coli [1]; against Klebsiella pneumoniae; against Pseudomonas aeruginosa; against Escherichia coli [2]; in the data set with Staphylococcus aureus; in [3]) was over 64 µg/mL throughout.
Consider `Nc1ncc(CNc2nc3c(cc2F)c(=O)c(C(=O)O)cn3C2CC2)c(N)n1`, for which the MIC with Escherichia coli [1] and in the data set with Staphylococcus aureus was over 64 µg/mL throughout.
`C#CCN1CCN(c2nc3c(cc2F)c(=O)c(C(=O)O)cn3C2CC2)CC1`: the minimal inhibitory concentration (MIC) is 0.25 µg/mL (≈ 0.675 µM) in the data set on Escherichia coli [1]; 8 µg/mL (≈ 21.6 µM) against Klebsiella pneumoniae; 8 µg/mL (≈ 21.6 µM) against Pseudomonas aeruginosa; over 64 µg/mL against Escherichia coli [2]; 0.25 µg/mL (≈ 0.675 µM) in the data set with Staphylococcus aureus; 0.5 µg/mL (≈ 1.35 µM) in data set [3]. Further, the IC50 came to 10 µM in [4] (read-out: IC50) and 4.4 µM in data set [5] (read-out: IC50).
Turning to `C#CCNc1nc2c(cc1F)c(=O)c(C(=O)OCC)cn2C1CC1`, the Activity entry in the data set with HepG2 and in the data set with HEK293 was “Toxic” each time. The CC50 at 48 h in [6] and in data set [7] was 80 µM throughout.
Turning to COLISTIN, the MIC was 0.06 µg/mL against Escherichia coli [1]; under 0.03 µg/mL in the data set with Klebsiella pneumoniae; at most 0.03 µg/mL in the data set on Pseudomonas aeruginosa; over 64 µg/mL in the data set with Escherichia coli [2]; 1 µg/mL against Staphylococcus aureus; 2 µg/mL in [3].
In the case of `COc1cc(Cc2cnc(N)nc2N)cc2c1OCCN2`, the minimal inhibitory concentration (MIC) against Escherichia coli [1] is 8 µg/mL (≈ 27.8 µM); with Klebsiella pneumoniae, 32 µg/mL (≈ 111 µM); against Pseudomonas aeruginosa, over 64 µg/mL; against Escherichia coli [2], over 64 µg/mL; against Staphylococcus aureus, 8 µg/mL (≈ 27.8 µM); in [3], over 64 µg/mL. The IC50 in data set [4] (read-out: IC50) and in [5] (read-out: IC50) was over 250 µM each time.
Take `[N-]=[N+]=Nc1nc2c(cc1F)c(=O)c(C(=O)O)cn2C1CC1`: the MIC against Escherichia coli [1] is 2 µg/mL (≈ 6.92 µM); with Klebsiella pneumoniae, 64 µg/mL (≈ 221 µM); against Pseudomonas aeruginosa it was over 64 µg/mL; in the data set with Escherichia coli [2], over 64 µg/mL; against Staphylococcus aureus, 16 µg/mL (≈ 55.3 µM); in data set [3], 4 µg/mL (≈ 13.8 µM). Further, the values for the IC50 in [4] (read-out: IC50) and in data set [5] (read-out: IC50) were 17 µM and over 250 µM, respectively.
On to `Nc1ncc(Cn2cc(CN3CCN(c4nc5c(cc4F)c(=O)c(C(=O)O)cn5C4CC4)CC3)nn2)c(N)n1`, for which the MIC with Escherichia coli [1] was 4 µg/mL (≈ 7.47 µM); against Klebsiella pneumoniae, over 64 µg/mL; in the data set with Pseudomonas aeruginosa it was 64 µg/mL (≈ 120 µM); in the data set on Escherichia coli [2], over 64 µg/mL; in the data set on Staphylococcus aureus, 64 µg/mL (≈ 120 µM); in data set [3], 8 µg/mL (≈ 14.9 µM). In addition, the IC50 in data set [4] (read-out: IC50) is 160 µM; in data set [5] (read-out: IC50) it was 10.7 µM.
As for `Nc1ncc(COCc2cn(-c3nc4c(cc3F)c(=O)c(C(=O)O)cn4C3CC3)nn2)c(N)n1`, the MIC against Escherichia coli [1] is 0.5 µg/mL (≈ 1.07 µM); with Klebsiella pneumoniae, 16 µg/mL (≈ 34.2 µM); in the data set on Pseudomonas aeruginosa it was over 64 µg/mL; in the data set on Escherichia coli [2], over 64 µg/mL; against Staphylococcus aureus, 4 µg/mL (≈ 8.56 µM); in data set [3], 4 µg/mL (≈ 8.56 µM). In addition, the IC50 was 48 µM in data set [4] (read-out: IC50), 4.5 µM in data set [5] (read-out: IC50) and over 250 µM against Dihydrofolate reductase.
For the molecule `CCOC(=O)c1cn(C2CC2)c2nc(NCc3cn(Cc4cnc(N)nc4N)nn3)c(F)cc2c1=O`, the MIC (in the data set on Escherichia coli [1]; in the data set on Klebsiella pneumoniae; with Pseudomonas aeruginosa; against Escherichia coli [2]; against Staphylococcus aureus; in [3]) was over 64 µg/mL in each case. Further, the IC50 result in data set [4] and in data set [5] was “Not Active” in each case.
Consider `O=C(O)c1cn(C2CC2)c2cc(N3CCNCC3)c(F)cc2c1=O` [CIPROFLOXACIN], for which the MIC against Escherichia coli [1] was at most 0.03 µg/mL; with Klebsiella pneumoniae, 0.125 µg/mL (≈ 0.377 µM); against Pseudomonas aeruginosa, at most 0.03 µg/mL; in the data set with Escherichia coli [2], over 64 µg/mL; in the data set with Staphylococcus aureus, 0.5 µg/mL (≈ 1.51 µM); in data set [3], 0.06 µg/mL (≈ 0.181 µM). In addition, the IC50 was determined as 0.97 µM in data set [4] (read-out: IC50) and 0.392 µM in data set [5] (read-out: IC50).
